The target of experiment [1] is T1, His-p53 Y220C (94-294) protein (Homo sapiens, UniProt P04637, Y220C).
T1 construct: His-p53 Y220C (94-294) protein
As to the kind of experiment: In vitro DNA binding assay (HTRF). The format is biochemical. The note with it: % activation normalized to 2 μM Ref-1a high control.

The next experiment concerns NUGC3 (P53 Y220C). Nature of the experiment: Cell viability assay (CellTiter-Glo, 6 days), NUGC3. The format is cell-based. The note with it: cell viability, 6 days, CellTiter-Glo, read-out: NUGC3 (P53 Y220C) IC50. Here is the method: (§1) Cells were collected and counted. A desired number of cells was seeded into 96-well microplate and cultured in 37° C. cell incubator overnight. Compounds dissolved in cell culture medium were added into cell plate and cultured for 6 days. After balancing CellTiter-Glo reagent and cells at room temperature for 30 min, equal volume of CellTiter-Glo reagents was added to assay plate and shaken for 2 min for cell lysis. The cells were balanced at room temperature for 10 minutes and Luminescence signal was read using Envision. The percent of cell viability for compounds treated wells were normalized between High control and low control. Wells containing cell culture medium and same percentage DMSO sewved as Low control. Wells containing cells and same percentage DMSO sewved as High control. Cell viability (%)=(Luminescence readoutCompound treated−Luminescence readoutLow control)/(Luminescence readoutHigh control−Luminescence readoutLow control)*100%. Then the data were analyzed either by fitting a 4-parameter logistic model or by Excel to calculate IC50 values. And the IC50 was the concentration at 50% Cell viability on the curve.
(ATP-based viability assays read luminescence as a measure of living cells.)

Another experiment concerns NUGC4 (P53 WT). As to the kind of experiment: Cell viability assay (CellTiter-Glo, 6 days), NUGC4. The format is cell-based. The note with it: cell viability, 6 days, CellTiter-Glo, read-out: NUGC4 (P53 WT) IC50. The method, then:
as §1

The test system of experiment [2] is NUGC-3_P53_Luc single clonal cell line (p53 Y220C). As to the kind of experiment: Reporter gene assay (p53 RE luciferase). Format: cell-based. The note with it: luciferase reporter, 6 hours, normalized to Ref-1a (10 μM) high control, read-out: p53(Y220C)_NUGC-3 EC50. Here is the method: NUGC-3_P53_Luc single clonal cell line was established using pGL4.38[luc2P/p53 RE/Hygro] Vector (E365A, promega). NUGC-3_P53-Luc single clonal cells were cultured in 37° C. cell incubator before use. NUGC-3-P53-Luc cells were collected and washed twice with PBS to remove phenol red and then resuspended in medium to a proper concentration. Tested compound dilutions were transferred into 384 well assay plates (PerkinElmer). A desired number of cells was seeded into the assay plate and cultured for 6 hours at 37° C. cell incubator. Britelite plus Luciferase Assay Reagent were added into each well and the luminescence value was recorded on Envision. The percent of activity value of compounds treated wells was normalized between high control and low control. Wells containing cells and Ref-1a (10 μM) sewved as high control, and wells containing cells and same percentage of DMSO sewved as low control. Activity value (%)=(Luminescence readoutCompound treated−Luminescence readoutLow control)/(Luminescence readoutHigh control−Luminescence readoutLow control)*100%. Then the data were analyzed either by fitting a 4-parameter logistic model or by Excel to calculate EC50 values and the EC50 was the concentration at 50% Activity on the curve.
(In a reporter assay the amount or activity of a reporter protein is the signal.)

Experimental findings from patent US20240400591A1 (Jacobio Pharmaceuticals Co., Ltd., priority 2021, published 2024) are described below.

The EC50 is the concentration at which the effect is half-maximal. The term IC50 denotes the midpoint of a concentration-inhibition curve.

Read-outs that look alike come from different tables or passages of the source.

Turning to `CN1CC[C@@H](Nc2cccc3c(CC(F)(F)F)c(C#CCNc4ccc(P(C)(C)=O)cc4-c4ncon4)sc23)[C@@H](F)C1` [Example 213, (4-((3-(7-(((3S,4R)-3-fluoro-1-methylpiperidin-4-yl)amino)-3-(2,2,2-trifluoroethyl)benzo[b]thiophen-2-yl)prop-2-yn-1-yl)amino)-3-(1,2,4-oxadiazol-3-yl)phenyl)dimethylphosphine oxide], the EC50 was 58 nM in experiment [1] and 220 nM in experiment [2] (Homo sapiens, NUGC-3). For the same compound, the half-maximal inhibitory concentration (IC50) in the experiment with NUGC3 (P53 Y220C) (Homo sapiens, NUGC-3, 144 h) is 370 nM; in the experiment on NUGC4 (P53 WT) (Homo sapiens, NUGC-4, 144 h) it was 9.59 µM.
Take `CN1CC[C@@H](Nc2cccc3c(CC(F)(F)F)c(C#CCNc4ccc(P(C)(C)=O)c5ncsc45)sc23)[C@@H](F)C1` [Example 220, (7-((3-(7-(((3S,4R)-3-fluoro-1-methylpiperidin-4-yl)amino)-3-(2,2,2-trifluoroethyl)benzo[b]thiophen-2-yl)prop-2-yn-1-yl)amino)benzo[d]thiazol-4-yl)dimethylphosphine oxide]: the EC50 in experiment [1] turned out to be 41 nM; in experiment [2] (Homo sapiens, NUGC-3) it was 150 nM. Further, the IC50 turned out to be 250 nM with NUGC3 (P53 Y220C) (Homo sapiens, NUGC-3, 144 h) and 8.11 µM in the experiment with NUGC4 (P53 WT) (Homo sapiens, NUGC-4, 144 h).
In the case of `COc1cc(P(C)(C)=O)ccc1NCC#Cc1sc2c(N[C@H]3CCN(C)C[C@@H]3C)cccc2c1CC(F)(F)F` [Example 127, (4-((3-(7-(((3S,4S)-1,3-dimethylpiperidin-4-yl)amino)-3-(2,2,2-trifluoroethyl)benzo[b]thiophen-2-yl)prop-2-yn-1-yl)amino)-3-methoxyphenyl)dimethylphosphine oxide], the EC50 worked out at 38 nM in experiment [1] and 100 nM in experiment [2] (Homo sapiens, NUGC-3, 6 h). Besides, the IC50 in the experiment on NUGC3 (P53 Y220C) (Homo sapiens, NUGC-3, 144 h) amounted to 330 nM; in the experiment with NUGC4 (P53 WT) (Homo sapiens, NUGC-4, 144 h), 2.26 µM.
`CNC(=O)c1ccc(NCC#Cc2sc3c(NC4CCN(C)CC4F)cccc3c2CC(F)(F)F)c(OC)n1` (stereo not drawn) [Example 62, 5-((3-(7-(((Z)-3-fluoro-1-methylpiperidin-4-yl)amino)-3-(2,2,2-trifluoroethyl)benzo[b]thiophen-2-yl)prop-2-yn-1-yl)amino)-6-methoxy-N-methylpicolinamide]: the EC50 was found to be 64 nM in experiment [1] and 340 nM in experiment [2]. The IC50 amounted to 1430 nM in the experiment with NUGC3 (P53 Y220C) and 3.7 µM in the experiment on NUGC4 (P53 WT).
For `CN1CC[C@@H](Nc2cccc3c(CC(F)(F)F)c(C#CCNc4ccc(P(C)(C)=O)c5c4OCO5)sc23)[C@@H](F)C1` [Example 163, (7-((3-(7-(((3S,4R)-3-fluoro-1-methylpiperidin-4-yl)amino)-3-(2,2,2-trifluoroethyl)benzo[b]thiophen-2-yl)prop-2-yn-1-yl)amino)benzo[d][1,3]dioxol-4-yl)dimethylphosphine oxide], the EC50 in experiment [1] came out at 50 nM; in experiment [2] (Homo sapiens, NUGC-3) it was 180 nM. Besides, the 50% inhibitory concentration (IC50) was determined as 1210 nM in the experiment on NUGC3 (P53 Y220C) (Homo sapiens, NUGC-3, 144 h) and 3.82 µM in the experiment with NUGC4 (P53 WT) (Homo sapiens, NUGC-4, 144 h).
Taken in the same sequence, the figures for `CN1CC[C@@H](Nc2cccc3c(CC(F)(F)F)c(C#CCNC(=O)c4cnn(C(C)(C)C)c4)sc23)[C@@H](F)C1` (racemic) [Example 129, 1-(tert-butyl)-N-(3-(7-(((Z)-3-fluoro-1-methylpiperidin-4-yl)amino)-3-(2,2,2-trifluoroethyl)benzo[b]thiophen-2-yl)prop-2-yn-1-yl)-1H-pyrazole-4-carboxamide] were 69 nM, 180 nM, 1850 nM and 8.95 µM.
As to `CN1CC[C@@H](Nc2cccc3c(CC(F)(F)F)c(C#CCNc4ccc(P(C)(C)=O)cc4C(=O)NC4COC4)sc23)[C@@H](F)C1` [Example 217, 5-(dimethylphosphoryl)-2-((3-(7-(((3S,4R)-3-fluoro-1-methylpiperidin-4-yl)amino)-3-(2,2,2-trifluoroethyl)benzo[b]thiophen-2-yl)prop-2-yn-1-yl)amino)-N-(oxetan-3-yl)benzamide], the IC50 with NUGC3 (P53 Y220C) (Homo sapiens, NUGC-3, 144 h) is 320 nM; in the experiment on NUGC4 (P53 WT) (Homo sapiens, NUGC-4, 144 h), 15.4 µM. The EC50 in experiment [2] (Homo sapiens, NUGC-3) turned out to be 150 nM.
As to `COc1cc(P(C)(C)=O)ccc1NCC#Cc1sc2c(NC3CCN(C)CC3C(F)(F)F)cccc2c1CC(F)(F)F` (racemic) [Example 169, (3-methoxy-4-((3-(7-(((Z)-1-methyl-3-(trifluoromethyl)piperidin-4-yl)amino)-3-(2,2,2-trifluoroethyl)benzo[b]thiophen-2-yl)prop-2-yn-1-yl)amino)phenyl)dimethylphosphine oxide], the EC50 in experiment [1] is 70 nM. Besides, the IC50 in the experiment on NUGC3 (P53 Y220C) (Homo sapiens, NUGC-3, 144 h) was 1630 nM; in the experiment on NUGC4 (P53 WT) (Homo sapiens, NUGC-4, 144 h) it was 4.33 µM.
`COc1cc(P(C)(C)=O)ccc1NCC#Cc1sc2c(NC3CCN(C)CC3C(F)(F)F)cccc2c1CC(F)(F)F` (racemic) [Example 170, (3-methoxy-4-((3-(7-(((E)-1-methyl-3-(trifluoromethyl)piperidin-4-yl)amino)-3-(2,2,2-trifluoroethyl)benzo[b]thiophen-2-yl)prop-2-yn-1-yl)amino)phenyl)di methylphosphine oxide (racemic)] returned an EC50 in experiment [1] of 76 nM. Besides, the IC50 in the experiment on NUGC3 (P53 Y220C) is 1640 nM; in the experiment on NUGC4 (P53 WT), 3.72 µM.
For `CN1CCC(Nc2cccc3c(CC(F)(F)F)c(C#CCNc4ccc(P(C)(C)=O)cc4OC4CC4)sc23)[C@@H](F)C1` (stereo in doubt) [Example 106, (3-cyclopropoxy-4-((3-(7-(((Z)-3-fluoro-1-methylpiperidin-4-yl)amino)-3-(2,2,2-trifluoroethyl)benzo[b]thiophen-2-yl)prop-2-yn-1-yl)amino)phenyl)dimethylphosphine oxide], the IC50 was 780 nM with NUGC3 (P53 Y220C) (Homo sapiens, NUGC-3, 144 h) and 3.8 µM with NUGC4 (P53 WT) (Homo sapiens, NUGC-4, 144 h). Further, in experiment [2] (Homo sapiens, NUGC-3, 6 h), the EC50 came out at 90 nM.
`CN1CC[C@@H](Nc2cccc3c(CC(F)(F)F)c(C#CCNc4ccc(P(C)(C)=O)cc4-c4cc[nH]n4)sc23)[C@@H](F)C1` [Example 200, (4-((3-(7-(((3S,4R)-3-fluoro-1-methylpiperidin-4-yl)amino)-3-(2,2,2-trifluoroethyl)benzo[b]thiophen-2-yl)prop-2-yn-1-yl)amino)-3-(1H-pyrazol-3-yl)phenyl)dimethylphosphine oxide]: the EC50 turned out to be 25 nM in experiment [1] and 60 nM in experiment [2] (Homo sapiens, NUGC-3, 6 h). In addition, in the experiment on NUGC4 (P53 WT) (Homo sapiens, NUGC-4, 144 h), the IC50 was 13.1 µM.
`CN1CCC(Nc2cccc3c(CC(F)(F)F)c(C#CCNc4ccc(S(N)(=O)=O)cc4)sc23)CC1` [Example 4, 4-((3-(7-((1-methylpiperidin-4-yl)amino)-3-(2,2,2-trifluoroethyl)benzo[b]thiophen-2-yl)prop-2-yn-1-yl)amino) benzenesulfonamide] yielded an EC50 in experiment [1] of 99 nM.
Still for that read-out and setting: the same measure for `COc1cc(S(C)(=O)=O)ccc1NCC#Cc1sc2c(NC3CC4CC3CN4C)cccc2c1CC(F)(F)F` (stereo not drawn) [Example 27, N-(2-(3-((2-methoxy-4-(methylsulfonyl)phenyl)amino)prop-1-yn-1-yl)-3-(2,2,2-trifluoroethyl)benzo[b]thiophen-7-yl)-2-methyl-2-azabicyclo[2.2.1]heptan-5-amine]: 235 nM; for `COc1cc(S(C)(=O)=O)ccc1NCC#Cc1sc2c(NC3C4CCC3CN(C)C4)cccc2c1CC(F)(F)F` (stereo not drawn) [Example 25, N-(2-(3-((2-methoxy-4-(methylsulfonyl)phenyl)amino)prop-1-yn-1-yl)-3-(2,2,2-trifluoroethyl)benzo[b]thiophen-7-yl)-3-methyl-3-azabicyclo[3.2.1]octan-8-amine]: 312 nM.
